Key:
[1] = biological target: T1, Vitamin D3 receptor (Homo sapiens) (UniProt P11473); test: Effect on Gal4 DBD-hVDRdelta LBD construct transactivation in COS7 cells at 10(-7) M; format: functional, cell-based; conditions: COS-7
T1 sequence (whole entry): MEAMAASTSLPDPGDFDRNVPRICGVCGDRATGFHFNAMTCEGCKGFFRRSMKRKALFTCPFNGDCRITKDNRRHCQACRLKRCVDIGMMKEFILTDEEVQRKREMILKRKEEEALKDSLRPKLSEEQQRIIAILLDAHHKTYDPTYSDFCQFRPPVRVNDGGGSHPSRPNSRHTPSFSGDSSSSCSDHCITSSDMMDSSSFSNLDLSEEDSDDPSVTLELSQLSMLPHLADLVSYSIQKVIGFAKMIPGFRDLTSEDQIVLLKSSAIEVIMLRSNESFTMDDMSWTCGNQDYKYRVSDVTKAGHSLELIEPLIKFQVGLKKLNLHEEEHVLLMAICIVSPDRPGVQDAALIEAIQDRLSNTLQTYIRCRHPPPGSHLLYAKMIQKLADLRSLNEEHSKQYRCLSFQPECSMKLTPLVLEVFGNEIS

[2] = biological target: T1, Vitamin D3 receptor (Homo sapiens); test: Effect on Gal4 DBD-hVDRdelta LBD construct transactivation in COS7 cells at 10(-5) M; format: functional, cell-based; conditions: COS-7

SMILES	Activity [1] [%]	Activity [2] [%]
C=C1/C(=C\C=C2/CC[C@@H](CCCCCCCC(C)(C)O)[C@]3(C)CCC[C@@H]23)C[C@@H](O)C[C@@H]1O	6	
C=C1/C(=C\C=C2/CC[C@@H](CCCCCCC(C)(C)O)[C@]3(C)CCC[C@@H]23)C[C@@H](O)C[C@@H]1O	20	100
C=C1/C(=C\C=C2/CC[C@@H](CCCCCC(C)(C)O)[C@]3(C)CCC[C@@H]23)C[C@@H](O)C[C@@H]1O	8	

Source: ChEMBL document CHEMBL1138175, “Novel 1alpha,25-dihydroxyvitamin D3 analogues with the side chain at C12” (J Med Chem, 2006)
